# Test results taken from ChEMBL document CHEMBL1201862, “PubChem BioAssay data set” (2004).
#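 Results reflect a 48-hour exposure of cells in 96-well plates to compound at five concentrations. GI50 = concentration required for 50% inhibition of growth.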 The source made the active and inactive calls. Cut-off read from the data, not from the text of the source: active = GI50 up to about 1.1 µM and inactive = higher.
# Columns and labels:
# Assay in all cases: DTP human tumour cell line panel, 48 h
# TK-10 = test system: TK-10
# MOLT-4 = test system: MOLT-4
# HT-29 = test system: HT-29
# RXF 393 = test system: RXF 393
# SN12C = test system: SN12C
# M14 = test system: M14
# DMS-273 = test system: DMS-273
# SW-620 = test system: SW-620
# RXF 631 = test system: RXF 631
# NCI-H23 = test system: NCI-H23
# SK-OV-3 = test system: SK-OV-3
# RPMI-8226 = test system: RPMI-8226
# HL-60 = test system: HL-60
# ACHN = test system: ACHN
# NCI-H460 = test system: NCI-H460
# UACC-62 = test system: UACC-62
# DMS-114 = test system: DMS-114
# SF-295 = test system: SF-295
# HCT-15 = test system: HCT-15
# UO-31 = test system: UO-31
# SNB-78 = test system: SNB-78
# KM-20L2 = test system: KM-20L2
# XF498 = test system: XF498
# M19-MEL = test system: M19-MEL
# DLD-1 = test system: DLD-1
# COLO 205 = test system: COLO 205
# OVCAR-3 = test system: OVCAR-3
# CCRF-CEM = test system: CCRF-CEM
# OVCAR-8 = test system: OVCAR-8
# HOP-62 = test system: HOP-62
# SK-MEL-5 = test system: SK-MEL-5
# UACC-257 = test system: UACC-257
# U-251 = test system: U-251
# LOX IMVI = test system: LOX IMVI
# HOP-92 = test system: HOP-92
# Malme-3M = test system: Malme-3M
# SK-MEL-28 = test system: SK-MEL-28
# SNB-19 = test system: SNB-19
# HCT-116 = test system: HCT-116
# HOP-18 = test system: HOP-18
# OVCAR-4 = test system: OVCAR-4
# IGROV-1 = test system: IGROV-1
# K562 = test system: K562
# SNB-75 = test system: SNB-75
# EKVX = test system: EKVX
# CAKI-1 = test system: CAKI-1
# A549 = test system: A549
# OVCAR-5 = test system: OVCAR-5
# LXFL 529 = test system: LXFL 529
# SR = test system: SR
# SK-MEL-2 = test system: SK-MEL-2
# 786-0 = test system: 786-0
# NCI-H226 = test system: NCI-H226
# A498 = test system: A498
# SF-539 = test system: SF-539
# HCC 2998 = test system: HCC 2998
smiles,measurement,setting,value
COc1ccc(C2C(C(=O)O)=C(COC(C)=O)Oc3cc4c(cc32)OCO4)cc1 (stereo not drawn),GI50,TK-10,> 100 µM (inactive)
same,GI50,MOLT-4,> 100 µM (inactive)
same,GI50,HT-29,> 100 µM (inactive)
same,GI50,RXF 393,> 100 µM (inactive)
same,GI50,SN12C,> 100 µM (inactive)
same,GI50,M14,> 100 µM (inactive)
same,GI50,DMS-273,> 100 µM (inactive)
same,GI50,SW-620,> 100 µM (inactive)
same,GI50,RXF 631,> 100 µM (inactive)
same,GI50,NCI-H23,> 100 µM (inactive)
same,GI50,SK-OV-3,> 100 µM (inactive)
same,GI50,RPMI-8226,> 100 µM (inactive)
same,GI50,HL-60,> 100 µM (inactive)
same,GI50,ACHN,> 100 µM (inactive)
same,GI50,NCI-H460,> 100 µM (inactive)
same,GI50,UACC-62,> 100 µM (inactive)
same,GI50,DMS-114,> 100 µM (inactive)
same,GI50,SF-295,> 100 µM (inactive)
same,GI50,HCT-15,> 100 µM
same,GI50,UO-31,> 100 µM (inactive)
same,GI50,SNB-78,> 100 µM (inactive)
same,GI50,KM-20L2,> 100 µM (inactive)
same,GI50,XF498,40.7 µM (inactive)
same,GI50,M19-MEL,> 100 µM (inactive)
same,GI50,DLD-1,> 100 µM (inactive)
same,GI50,COLO 205,> 100 µM (inactive)
same,GI50,OVCAR-3,> 100 µM (inactive)
same,GI50,CCRF-CEM,> 100 µM (inactive)
same,GI50,OVCAR-8,> 100 µM (inactive)
same,GI50,HOP-62,> 100 µM (inactive)
same,GI50,SK-MEL-5,> 100 µM (inactive)
same,GI50,UACC-257,> 100 µM (inactive)
same,GI50,U-251,> 100 µM (inactive)
same,GI50,LOX IMVI,> 100 µM (inactive)
same,GI50,HOP-92,> 100 µM (inactive)
same,GI50,Malme-3M,> 100 µM (inactive)
same,GI50,SK-MEL-28,> 100 µM (inactive)
same,GI50,SNB-19,> 100 µM (inactive)
same,GI50,HCT-116,> 100 µM (inactive)
same,GI50,HOP-18,> 100 µM (inactive)
same,GI50,OVCAR-4,> 100 µM (inactive)
same,GI50,IGROV-1,> 100 µM (inactive)
same,GI50,K562,> 100 µM (inactive)
same,GI50,SNB-75,> 100 µM (inactive)
same,GI50,EKVX,> 100 µM (inactive)
same,GI50,CAKI-1,> 100 µM (inactive)
same,GI50,A549,> 100 µM (inactive)
Cc1ccc(S(=O)(=O)NC(=O)C#CCOC2CCCCO2)cc1 (stereo not drawn),GI50,TK-10,> 100 µM (inactive)
same,GI50,MOLT-4,> 100 µM (inactive)
same,GI50,HT-29,> 100 µM (inactive)
same,GI50,RXF 393,> 100 µM (inactive)
same,GI50,SN12C,> 100 µM (inactive)
same,GI50,M14,> 100 µM (inactive)
same,GI50,OVCAR-5,> 100 µM (inactive)
same,GI50,LXFL 529,> 100 µM (inactive)
same,GI50,DMS-273,> 100 µM (inactive)
same,GI50,SW-620,> 100 µM (inactive)
same,GI50,RXF 631,> 100 µM (inactive)
same,GI50,NCI-H23,> 100 µM (inactive)
same,GI50,RPMI-8226,> 100 µM (inactive)
same,GI50,HL-60,> 100 µM (inactive)
same,GI50,ACHN,> 100 µM (inactive)
same,GI50,NCI-H460,> 100 µM (inactive)
same,GI50,SR,> 100 µM (inactive)
same,GI50,UACC-62,> 100 µM (inactive)
same,GI50,DMS-114,> 100 µM (inactive)
same,GI50,SF-295,> 100 µM (inactive)
same,GI50,SK-MEL-2,82.8 µM (inactive)
same,GI50,HCT-15,> 100 µM
same,GI50,UO-31,> 100 µM (inactive)
same,GI50,786-0,> 100 µM (inactive)
same,GI50,NCI-H226,> 100 µM (inactive)
same,GI50,KM-20L2,> 100 µM (inactive)
same,GI50,XF498,> 100 µM (inactive)
same,GI50,M19-MEL,> 100 µM (inactive)
same,GI50,DLD-1,> 100 µM (inactive)
same,GI50,OVCAR-3,> 100 µM (inactive)
same,GI50,CCRF-CEM,> 100 µM (inactive)
same,GI50,OVCAR-8,> 100 µM (inactive)
same,GI50,SK-MEL-5,> 100 µM (inactive)
same,GI50,UACC-257,> 100 µM (inactive)
same,GI50,A498,> 100 µM (inactive)
same,GI50,U-251,> 100 µM (inactive)
same,GI50,LOX IMVI,> 100 µM (inactive)
same,GI50,HOP-92,> 100 µM (inactive)
same,GI50,Malme-3M,> 100 µM (inactive)
same,GI50,SK-MEL-28,> 100 µM (inactive)
same,GI50,SNB-19,> 100 µM (inactive)
same,GI50,HCT-116,> 100 µM (inactive)
same,GI50,SF-539,> 100 µM (inactive)
same,GI50,HOP-18,> 100 µM (inactive)
same,GI50,OVCAR-4,> 100 µM (inactive)
same,GI50,K562,> 100 µM (inactive)
same,GI50,SNB-75,> 100 µM (inactive)
same,GI50,EKVX,> 100 µM (inactive)
same,GI50,CAKI-1,> 100 µM (inactive)
same,GI50,HCC 2998,> 100 µM (inactive)
same,GI50,A549,> 100 µM (inactive)
